How the values were obtained:
Assay in all cases: Generic kinase assay (33P-ATP, Myelin Basic Protein)
Type in all cases: biochemical
[1] = target: RICK (Homo sapiens, UniProt O43353); conditions: class symbol: % inhibition at 10 μM or IC50; for inhibition at 10 µM: 1 h, read-out: Inhibitory effect on target RICK
Experimental: (§1) In order to determine the inhibitory effect of the compounds of the subject invention on various target enzymes a generic kinase assay was established.
(§2) Reactions were performed in 96-Well U-bottom microtiter plates (Greiner Bio-One; Frickenhausen/Germany, Cat. No. 650161), hereinafter designated “Assay Plates”. 10 μl of a solution comprising 40 μM Myelin Basic Protein (Invitrogen; Carlsbad, Calif./USA; Cat. No. 13228-010) and 4 μM ATP in three-fold concentrated Reaction Buffer (60 mM Tris-HCl, pH 7.5; 30 mM MgCl2; 3 mM dithiothreitol) were added into each well of the Assay Plate. 10 μl of serial dilutions of the compounds of the subject invention, dissolved in 4% DMSO, were then added into each well, except for Positive Control. Wells (C+ wells) and Negative Control Wells (C− wells). 10 μl of 4% DMSO without compounds were added to C+ and C− wells. 10 μl of a 500 mM solution of EDTA in water was then added to C− wells. Then 10 μl of a solution containing 50 μCi/ml Adenosine 5′-[γ-^33P]triphosphate in water was added to each well. To start the reaction 10 μl of the kinase to be assayed was added to each well. The optimal amount of kinase in the assay was determined to be the amount which yields to a turn-over of about 10% of ATP. Assay Plates were incubated for one hour at room temperature. Then 10 μl of a 500 mM solution of EDTA in water was added to each well except C− wells. Samples were now ready for measurement.
(§3) Measurements were preformed in 96-Well MAPH-Filter Plates (Millipore; Billerica, Mass./United States; Cat. No. MAPHNOB50), hereinafter designated “Measurement Plates”. Measurement Plates were washed with 200 μl of a 0.75% H3PO4 solution per well. The H3PO4 solution was exhausted using a Millipore vacuum station. 60 μl of a 0.75% H3PO4 solution was then added into each well, followed by the transfer of 30 μl of each well from the Assay Plate into the corresponding wells of the Measurement Plate. The Measurement Plate was incubated for 30 minutes at room temperature. Thereafter each well was washed three times with 200 μl of a 0.75% H3PO4 solution using a Millipore vacuum station. 20 μl of scintillation liquid (Supermix Liquid Szintillator; Perkin Elmer, Wellesley. Mass./United States; Cat. No. 1200-439) was then added to each well of the Measurement Plate. The plate was sealed and stored for 30 minutes in the darkness before radioactivity was quantified in a MicroBeta Scintillation Counter (Perkin Elmer, Wellesley. Mass./United States).

[2] = target: ROCK 2 (Homo sapiens, UniProt O75116); conditions: class symbol: % inhibition at 10 μM or IC50; for inhibition at 10 µM: 1 h, read-out: Inhibitory effect on target ROCK 2
Experimental: as §1, §2, §3

[3] = target: EGFR (Homo sapiens, UniProt P00533); conditions: class symbol: % inhibition at 10 μM or IC50
Experimental: as §1, §2, §3

[4] = target: c-kit (Homo sapiens, UniProt P10721); conditions: 1 h; class symbol: % inhibition at 10 μM or IC50; read-out: Inhibitory effect on target c-kit
Experimental: as §1, §2, §3

[5] = target: p56Lck (Homo sapiens, UniProt P06239); conditions: 1 h; class symbol: % inhibition at 10 μM or IC50; read-out: Inhibitory effect on target p56Lck
Experimental: as §1, §2, §3

[6] = target: Abl (Homo sapiens, UniProt P00519); conditions: 1 h; class symbol: % inhibition at 10 μM or IC50; read-out: Inhibitory effect on target Abl
Experimental: as §1, §2, §3

[7] = target: cRaf (Homo sapiens, UniProt P04049); conditions: 1 h; class symbol: % inhibition at 10 μM or IC50; read-out: Inhibitory effect on target cRaf
Experimental: as §1, §2, §3

[8] = system: PDGFR; conditions: class symbol: % inhibition at 10 μM or IC50
Experimental: as §1, §2, §3

[9] = target: c-Src (Homo sapiens, UniProt P12931); conditions: class symbol: % inhibition at 10 μM or IC50
Experimental: as §1, §2, §3

[10] = target: CDK5/p35 (Homo sapiens, UniProt Q00535); conditions: class symbol: % inhibition at 10 μM or IC50
Experimental: as §1, §2, §3

[11] = target: CDK1/CyclinB (Homo sapiens, UniProt P06493); conditions: class symbol: % inhibition at 10 μM or IC50
Experimental: as §1, §2, §3

[12] = target: CDK2/CyclinA (Homo sapiens, UniProt P24941); conditions: class symbol: % inhibition at 10 μM or IC50
Experimental: as §1, §2, §3

Sequence of c-kit (P10721 26-976): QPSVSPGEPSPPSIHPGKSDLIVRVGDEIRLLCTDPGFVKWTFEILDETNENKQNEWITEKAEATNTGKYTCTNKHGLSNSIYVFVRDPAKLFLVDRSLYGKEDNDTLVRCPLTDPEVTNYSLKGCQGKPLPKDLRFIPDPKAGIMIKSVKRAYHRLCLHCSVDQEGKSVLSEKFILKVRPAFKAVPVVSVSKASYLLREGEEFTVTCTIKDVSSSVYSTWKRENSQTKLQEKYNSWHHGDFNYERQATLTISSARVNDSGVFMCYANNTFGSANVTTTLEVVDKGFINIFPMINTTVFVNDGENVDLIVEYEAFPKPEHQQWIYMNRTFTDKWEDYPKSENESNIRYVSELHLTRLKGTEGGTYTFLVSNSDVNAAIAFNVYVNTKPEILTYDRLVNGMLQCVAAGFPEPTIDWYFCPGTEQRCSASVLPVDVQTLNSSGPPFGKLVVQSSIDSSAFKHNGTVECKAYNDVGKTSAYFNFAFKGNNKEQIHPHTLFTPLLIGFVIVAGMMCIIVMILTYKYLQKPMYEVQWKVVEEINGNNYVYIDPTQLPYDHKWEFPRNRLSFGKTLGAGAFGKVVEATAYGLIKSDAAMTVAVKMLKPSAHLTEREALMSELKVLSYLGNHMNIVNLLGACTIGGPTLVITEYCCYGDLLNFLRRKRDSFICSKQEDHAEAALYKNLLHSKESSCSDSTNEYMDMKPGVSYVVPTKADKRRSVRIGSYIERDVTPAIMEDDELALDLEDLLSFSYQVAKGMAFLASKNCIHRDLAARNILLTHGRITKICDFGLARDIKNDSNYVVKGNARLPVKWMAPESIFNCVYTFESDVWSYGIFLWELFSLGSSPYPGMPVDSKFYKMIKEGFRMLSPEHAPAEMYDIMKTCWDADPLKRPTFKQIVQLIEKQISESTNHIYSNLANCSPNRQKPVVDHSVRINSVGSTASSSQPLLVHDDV
Sequence of CDK1/CyclinB (P06493 whole entry, species assumed): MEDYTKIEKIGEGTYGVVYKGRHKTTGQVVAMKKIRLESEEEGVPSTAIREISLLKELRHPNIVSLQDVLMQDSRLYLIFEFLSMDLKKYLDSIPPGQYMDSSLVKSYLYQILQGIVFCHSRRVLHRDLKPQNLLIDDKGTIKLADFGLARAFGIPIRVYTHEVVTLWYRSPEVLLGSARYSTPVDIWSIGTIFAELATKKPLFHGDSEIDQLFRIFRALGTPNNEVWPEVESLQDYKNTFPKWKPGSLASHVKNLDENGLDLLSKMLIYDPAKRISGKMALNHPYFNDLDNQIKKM
Sequence of CDK1/CyclinB (P14635 whole entry partner, species assumed): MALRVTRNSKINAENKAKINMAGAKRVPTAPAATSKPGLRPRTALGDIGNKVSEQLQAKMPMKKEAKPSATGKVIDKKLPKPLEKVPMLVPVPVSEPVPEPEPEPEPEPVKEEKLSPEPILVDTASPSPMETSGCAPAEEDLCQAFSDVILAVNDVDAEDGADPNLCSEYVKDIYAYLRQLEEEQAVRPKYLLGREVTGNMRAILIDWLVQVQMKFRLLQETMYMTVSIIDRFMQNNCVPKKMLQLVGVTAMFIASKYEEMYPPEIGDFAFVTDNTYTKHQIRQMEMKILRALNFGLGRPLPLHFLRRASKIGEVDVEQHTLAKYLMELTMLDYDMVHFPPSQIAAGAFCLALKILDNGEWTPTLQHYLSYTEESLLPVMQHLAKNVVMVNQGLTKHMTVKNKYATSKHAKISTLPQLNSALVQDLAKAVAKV
Sequence of cRaf (P04049 whole entry, species assumed): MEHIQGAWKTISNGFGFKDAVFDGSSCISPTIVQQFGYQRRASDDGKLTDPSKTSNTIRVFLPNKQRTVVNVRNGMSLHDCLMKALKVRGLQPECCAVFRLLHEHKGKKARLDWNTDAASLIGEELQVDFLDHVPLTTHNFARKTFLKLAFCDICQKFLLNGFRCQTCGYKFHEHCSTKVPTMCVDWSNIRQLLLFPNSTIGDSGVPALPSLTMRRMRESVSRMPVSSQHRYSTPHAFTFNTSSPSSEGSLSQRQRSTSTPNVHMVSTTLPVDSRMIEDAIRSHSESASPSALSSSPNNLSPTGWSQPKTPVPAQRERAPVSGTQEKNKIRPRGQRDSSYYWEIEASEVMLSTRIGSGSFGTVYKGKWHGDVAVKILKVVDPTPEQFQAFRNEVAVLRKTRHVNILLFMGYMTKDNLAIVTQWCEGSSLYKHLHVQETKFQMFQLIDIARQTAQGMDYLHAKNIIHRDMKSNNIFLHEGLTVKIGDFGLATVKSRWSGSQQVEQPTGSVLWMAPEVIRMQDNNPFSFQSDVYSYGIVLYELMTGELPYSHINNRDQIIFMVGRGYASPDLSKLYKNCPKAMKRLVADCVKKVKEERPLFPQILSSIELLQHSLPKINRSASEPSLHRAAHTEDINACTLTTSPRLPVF
Sequence of p56Lck (P06239 whole entry, species assumed): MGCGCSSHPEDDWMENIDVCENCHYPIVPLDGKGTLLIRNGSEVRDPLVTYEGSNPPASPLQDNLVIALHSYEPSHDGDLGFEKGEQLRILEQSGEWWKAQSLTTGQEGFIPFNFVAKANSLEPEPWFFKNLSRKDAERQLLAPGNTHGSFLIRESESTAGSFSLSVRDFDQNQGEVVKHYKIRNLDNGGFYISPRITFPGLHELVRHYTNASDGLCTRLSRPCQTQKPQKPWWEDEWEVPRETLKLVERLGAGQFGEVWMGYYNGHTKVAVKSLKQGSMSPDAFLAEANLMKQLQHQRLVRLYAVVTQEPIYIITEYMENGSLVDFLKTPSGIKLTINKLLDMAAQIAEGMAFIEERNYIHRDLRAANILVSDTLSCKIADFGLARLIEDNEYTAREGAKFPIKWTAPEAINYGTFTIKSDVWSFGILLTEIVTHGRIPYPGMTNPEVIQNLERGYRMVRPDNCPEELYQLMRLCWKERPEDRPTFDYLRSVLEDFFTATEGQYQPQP
Sequence of Abl (P00519 whole entry, species assumed): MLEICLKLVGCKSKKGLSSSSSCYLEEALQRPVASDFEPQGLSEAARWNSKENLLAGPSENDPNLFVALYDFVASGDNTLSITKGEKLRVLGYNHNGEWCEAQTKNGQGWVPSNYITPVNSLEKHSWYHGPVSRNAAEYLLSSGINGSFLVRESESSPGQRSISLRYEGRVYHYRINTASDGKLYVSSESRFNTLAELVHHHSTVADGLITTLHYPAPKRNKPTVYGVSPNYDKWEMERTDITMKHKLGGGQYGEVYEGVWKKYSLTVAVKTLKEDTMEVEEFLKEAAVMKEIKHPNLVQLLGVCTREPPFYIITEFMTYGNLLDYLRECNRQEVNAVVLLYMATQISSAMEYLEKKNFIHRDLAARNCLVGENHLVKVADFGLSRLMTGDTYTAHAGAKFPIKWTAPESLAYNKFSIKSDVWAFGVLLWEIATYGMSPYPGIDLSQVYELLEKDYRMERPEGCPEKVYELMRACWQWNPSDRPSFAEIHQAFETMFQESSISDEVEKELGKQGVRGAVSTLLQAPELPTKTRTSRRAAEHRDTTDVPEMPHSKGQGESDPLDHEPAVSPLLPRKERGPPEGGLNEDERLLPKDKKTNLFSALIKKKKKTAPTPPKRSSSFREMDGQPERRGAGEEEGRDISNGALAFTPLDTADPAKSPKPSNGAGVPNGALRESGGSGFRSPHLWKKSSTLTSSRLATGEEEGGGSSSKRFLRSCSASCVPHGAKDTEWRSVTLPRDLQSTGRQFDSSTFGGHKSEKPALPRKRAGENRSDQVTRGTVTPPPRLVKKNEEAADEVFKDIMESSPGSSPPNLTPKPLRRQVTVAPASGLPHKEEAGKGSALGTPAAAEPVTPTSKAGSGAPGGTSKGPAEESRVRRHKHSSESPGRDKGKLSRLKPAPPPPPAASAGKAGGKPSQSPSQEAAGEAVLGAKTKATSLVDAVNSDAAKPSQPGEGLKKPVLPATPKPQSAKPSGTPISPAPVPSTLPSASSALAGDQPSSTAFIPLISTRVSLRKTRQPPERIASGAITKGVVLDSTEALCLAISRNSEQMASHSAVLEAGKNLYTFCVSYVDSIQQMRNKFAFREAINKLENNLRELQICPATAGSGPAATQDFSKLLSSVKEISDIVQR
Sequence of RICK (O43353 whole entry, species assumed): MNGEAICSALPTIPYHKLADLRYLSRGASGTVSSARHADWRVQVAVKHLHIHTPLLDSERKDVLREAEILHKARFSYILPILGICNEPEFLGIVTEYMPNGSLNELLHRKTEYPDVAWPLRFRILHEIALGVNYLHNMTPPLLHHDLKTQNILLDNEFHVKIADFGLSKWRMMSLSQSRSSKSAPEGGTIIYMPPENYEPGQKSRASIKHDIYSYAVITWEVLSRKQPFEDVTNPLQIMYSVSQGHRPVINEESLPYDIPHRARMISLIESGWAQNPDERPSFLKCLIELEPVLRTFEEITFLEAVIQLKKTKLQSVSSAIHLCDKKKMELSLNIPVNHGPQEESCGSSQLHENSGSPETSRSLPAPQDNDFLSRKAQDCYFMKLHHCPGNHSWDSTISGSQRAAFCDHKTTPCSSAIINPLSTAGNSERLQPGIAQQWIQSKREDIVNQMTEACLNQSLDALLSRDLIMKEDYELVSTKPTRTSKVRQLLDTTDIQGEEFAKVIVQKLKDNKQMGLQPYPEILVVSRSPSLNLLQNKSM
Sequence of c-Src (P12931 whole entry, species assumed): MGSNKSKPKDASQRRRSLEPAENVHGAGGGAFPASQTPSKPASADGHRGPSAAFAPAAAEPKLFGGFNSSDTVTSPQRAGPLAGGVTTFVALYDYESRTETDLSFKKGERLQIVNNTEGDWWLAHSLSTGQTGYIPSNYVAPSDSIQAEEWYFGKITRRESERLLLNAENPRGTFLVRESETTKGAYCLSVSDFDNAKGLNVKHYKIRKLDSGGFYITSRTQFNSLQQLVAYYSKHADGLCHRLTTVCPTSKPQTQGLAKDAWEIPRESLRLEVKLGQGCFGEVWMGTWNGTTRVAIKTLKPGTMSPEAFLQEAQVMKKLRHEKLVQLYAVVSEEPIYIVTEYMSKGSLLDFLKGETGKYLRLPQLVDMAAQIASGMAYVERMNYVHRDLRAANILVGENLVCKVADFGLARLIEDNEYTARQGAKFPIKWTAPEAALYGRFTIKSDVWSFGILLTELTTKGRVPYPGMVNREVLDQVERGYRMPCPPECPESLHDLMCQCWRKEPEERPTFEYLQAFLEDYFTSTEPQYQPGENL

Compound	inhibition at 10 µM [1]	inhibition at 10 µM [2]	Inhibitory effect on target EGFR [3]	inhibition at 10 µM [4]	inhibition at 10 µM [5]	inhibition at 10 µM [6]	Inhibitory effect on target RICK [1]	inhibition at 10 µM [7]	Inhibitory effect on target PDGFR [8]	Inhibitory effect on target ROCK 2 [2]	Inhibitory effect on target c-Src [9]	Inhibitory effect on target CDK5/p35 [10]	Inhibitory effect on target CDK1/CyclinB [11]	Inhibitory effect on target CDK2/CyclinA [12]
Oc1ccc(-c2cncc(NCc3ccc4c(c3)OCO4)c2)cc1 [Compound 126, 4-{5-[(Benzo[1,3]dioxol-5-ylmethyl)-amino]-pyridin-3-yl}-phenol]	50 to 90%	50 to 90%	–	–	–	–	–	–	–	–	–	–	–	–
Oc1ccc(-c2cncc(NCc3ccc(F)c(F)c3)c2)cc1 [Compound 127, 4-[5-(3,4-Difluoro-benzylamino)-pyridin-3-yl]-phenol]	50 to 90%	50 to 90%	–	–	–	–	–	–	–	–	–	–	–	–
Oc1cccc(CNc2cncc(-c3cccc(O)c3)c2)c1 [Compound 225, 3-{5-[(3-Hydroxybenzyl)amino]pyridin-3-yl}phenol]	–	50 to 90%	A (A: 50-90% inhibition at 10 μM enzyme concentration)	> 90%	> 90%	50 to 90%	C (C: IC50 measured: <1 μM)	50 to 90%	A (A: 50-90% inhibition at 10 μM enzyme concentration)	–	–	–	–	–
OCc1ccc(-c2cncc(NCc3cccc(O)c3)c2)cc1 [Compound 229, 3-{[5-(4-Hydroxymethyl-phenyl)-pyridin-3-ylamino]-methyl}-phenol]	–	50 to 90%	A (A: 50-90% inhibition at 10 μM enzyme concentration)	> 90%	50 to 90%	50 to 90%	C (C: IC50 measured: <1 μM)	50 to 90%	A (A: 50-90% inhibition at 10 μM enzyme concentration)	–	–	–	–	–
NC(=O)c1cccc(-c2cncc(NCc3cccc(O)c3)c2)c1 [Compound 230, 3-[5-(3-Hydroxy-benzylamino)-pyridin-3-yl]-benzamide]	–	–	A (A: 50-90% inhibition at 10 μM enzyme concentration)	> 90%	> 90%	> 90%	C (C: IC50 measured: <1 μM)	50 to 90%	–	C (C: IC50 measured: <1 μM)	–	–	–	–
Oc1cccc(CNc2cncc(-c3cccc(O)c3F)c2)c1 [Compound 231, 2-Fluoro-3-[5-(3-hydroxy-benzylamino)-pyridin-3-yl]-phenol]	–	–	A (A: 50-90% inhibition at 10 μM enzyme concentration)	50 to 90%	50 to 90%	50 to 90%	C (C: IC50 measured: <1 μM)	50 to 90%	A (A: 50-90% inhibition at 10 μM enzyme concentration)	–	B (B: >90% inhibition at 10 μM enzyme concentration)	A (A: 50-90% inhibition at 10 μM enzyme concentration)	A (A: 50-90% inhibition at 10 μM enzyme concentration)	–
CC(=O)Nc1cccc(-c2cncc(Nc3ccc(F)cc3)c2)c1 [Compound 235, N-{3-[5-(4-Fluoro-phenylamino)-pyridin-3-yl]-phenyl}-acetamide]	–	–	A (A: 50-90% inhibition at 10 μM enzyme concentration)	–	–	–	C (C: IC50 measured: <1 μM)	–	A (A: 50-90% inhibition at 10 μM enzyme concentration)	–	–	–	A (A: 50-90% inhibition at 10 μM enzyme concentration)	–
COc1cccc(-c2cncc(NCc3cccc(O)c3)c2)c1F [Compound 236, 3-{[5-(2-Fluoro-3-methoxy-phenyl)-pyridin-3-ylamino]-methyl}-phenol]	–	–	A (A: 50-90% inhibition at 10 μM enzyme concentration)	> 90%	50 to 90%	50 to 90%	C (C: IC50 measured: <1 μM)	50 to 90%	A (A: 50-90% inhibition at 10 μM enzyme concentration)	–	A (A: 50-90% inhibition at 10 μM enzyme concentration)	–	A (A: 50-90% inhibition at 10 μM enzyme concentration)	–
Oc1cccc(CNc2cncc(-c3ccccc3)c2)c1 [Compound 238, 3-[(5-Phenyl-pyridin-3-ylamino)-methyl]-phenol]	–	–	A (A: 50-90% inhibition at 10 μM enzyme concentration)	> 90%	50 to 90%	50 to 90%	C (C: IC50 measured: <1 μM)	50 to 90%	A (A: 50-90% inhibition at 10 μM enzyme concentration)	–	–	–	–	–
COc1ccccc1Nc1cncc(-c2cccc(NC(C)=O)c2)c1 [Compound 240, N-{3-[5-(2-Methoxy-phenylamino)-pyridin-3-yl]-phenyl}-acetamide]	–	–	–	–	50 to 90%	–	C (C: IC50 measured: <1 μM)	–	A (A: 50-90% inhibition at 10 μM enzyme concentration)	–	–	–	A (A: 50-90% inhibition at 10 μM enzyme concentration)	–
COC(=O)c1cccc(-c2cncc(NCc3cccc(O)c3)c2)c1 [Compound 243, 3-[5-(3-Hydroxy-benzylamino)-pyridin-3-yl]-benzoic acid methyl ester]	–	50 to 90%	–	50 to 90%	> 90%	50 to 90%	C (C: IC50 measured: <1 μM)	50 to 90%	–	–	–	–	–	B (B: >90% inhibition at 10 μM enzyme concentration)
O=C(O)c1cccc(-c2cncc(NCc3cccc(O)c3)c2)c1 [Compound 246, 3-[5-(3-Hydroxy-benzylamino)-pyridin-3-yl]-benzoic acid]	–	–	A (A: 50-90% inhibition at 10 μM enzyme concentration)	50 to 90%	50 to 90%	50 to 90%	C (C: IC50 measured: <1 μM)	> 90%	A (A: 50-90% inhibition at 10 μM enzyme concentration)	–	–	–	–	–
Cc1ccc(CNc2cncc(-c3cccc(O)c3)c2)cc1O [Compound 247, 5-{[5-(3-Hydroxy-phenyl)-pyridin-3-ylamino]-methyl}-2-methyl-phenol]	–	50 to 90%	A (A: 50-90% inhibition at 10 μM enzyme concentration)	50 to 90%	–	–	C (C: IC50 measured: <1 μM)	–	A (A: 50-90% inhibition at 10 μM enzyme concentration)	–	–	–	–	–
Oc1cccc(CNc2cncc(Cc3cccc(O)c3)c2)c1 [Compound 272, (3-hydroxy-benzyl)-[5-(3-hydroxy-benzyl)-pyridin-3-yl]-amine]	–	50 to 90%	–	–	–	–	–	–	–	–	–	A (A: 50-90% inhibition at 10 μM enzyme concentration)	–	B (B: >90% inhibition at 10 μM enzyme concentration)
